Data as given in patent US5801180A, “Quinazoline derivatives” (priority 1991, dated 1998).
pIC50: −log10 of the molar value.

Biological target: T1, cGMP-PDE prepared from the swine aeorta (Sus scrofa, UniProt A0A287B475)
T1 construct: The swine aeorta was sliced; from tissue; host or cells: swine aorta, 100000×g supernatant, DEAE-Toyopearl 650S fraction
Assay: Enzyme inhibiting action with the use of cGMP-PDE prepared from the swine aorta
Assay type: biochemical
Settings: CaM-independent cGMP-PDE, 1 mM EGTA, 1 μM cGMP substrate, DMSO 4% or below
Description: Enzyme inhibiting action with the use of cGMP-PDE prepared from the swine aeorta
The enzymatic activity of the cGMP-PDE prepared from the swine aeorta was determined according to the method of Thompson et al. ^(1). The enzymatic activity thereof was determined in the presence of 1 mM EGTA by the use of 1 μM cGMP as a substrate. The compound of the present invention was dissolved in DMSO, added to the reaction liquid and examined for the inhibitory activity. The final concentration of DMSO in the reaction liquid was adjusted to 4% or below. (1) Thompson, W. J. and Strada, S. J., Cyclic Nucleotide Phosphodiesterase (PDE), in Methods of Enzymatic Analysis, vol 4, p.127-234, 1984.
The swine aeorta was sliced, followed by the addition of 10 times by volume as much Buffer A (20 mM Tris/HCl, 2 mM Mg acetate, 1 mM Dithiothreitol, 5 mM EDTA, 1400 TIU/liter aprotinin, 10 mg/liter leupeptin, 1 mM benzamidine, 0.2 mM PMSF, pH 7.5). The obtained mixture was homogenized and the homogenate was centrifuged at 100000×g for one hour. The obtained supernatant was supplied a DEAE-Toyopearl 650S (Tosoh, Tokyo, Japan) column. After the column was washed with Buffer B (50 mM Tris/HCl, 0.1 mM EGTA, 2 mM Mg acetate, 1 mM Dithiothreitol, 0.2 mM PMSF, pH 7.5), gradient elution with 0.05 to 0.4M NaCl was conducted. Thus, CaM-independent cGMP-PDE fractions were obtained.

| Structure (SMILES) | pIC50 |
| --- | --- |
| CCCOc1ccccc1-c1nc(NCc2ccc3c(c2)OCO3)c2ccccc2n1 [Example 84, 2-(2-Propoxyphenyl)-4-(3,4-methylenedioxybenzyl)aminoquinazoline] | 6.66 |
| N#Cc1ccc2nc(Cl)nc(NCc3ccc4nc[nH]c4c3)c2c1 [Example 104, 2-Chloro-4-(benzimidazol-5-yl)methylamino-6-cyanoquinazoline] | 8.00 |
| NC(=O)c1ccc2ncnc(NCc3ccc4c(c3)OCO4)c2c1 [Example 133, 4-(3,4-Methylenedioxybenzyl)amino-6-carbamoylquinazoline] | 6.11 |
| O=C(O)C1CCN(c2nc(NCc3ccc4[nH]cnc4c3)c3cc(Cl)ccc3n2)CC1 [Example 236, 2-(4-Carboxypiperidino)-4-(benzimidazol-5-yl)methylamino-6-chloroquinazoline] | 8.22 |
| OCCCCCCOc1nc(NCc2ccc3c(c2)OCO3)c2cc(Cl)ccc2n1 [Example 176] | 8.52 |
| Clc1ccc2nc(Cl)nc(NCc3ccc4c(c3)OCO4)c2c1 [Example 92, 2,6-Dichloro-4-(3,4-methylenedioxybenzyl)aminoquinazoline] | 7.03 |
| OCCCCOc1nc(NCc2ccc3c(c2)OCO3)c2cc(Cl)ccc2n1 [Example 174, 2-(4-Hydroxybutoxy)-4-(3,4-methylenedioxybenzyl)amino-6-chloroquinazoline] | 8.40 |
| COc1ccc2nc(N3CCC(C(=O)O)CC3)nc(NCc3ccc(OC)c(Cl)c3)c2c1 [Example 234, 2-(4-Carboxypiperidino)-4-(3-chloro-4-mehtoxybenzyl)amino-6-methoxyquinazoline] | 8.22 |
| COc1cc2c(NCc3ccc4c(c3)OCO4)nc(/C=C(\C)C(=O)O)nc2c(OC)c1OC [Example 127, (E)-2-(2-Carboxy-1-propenyl)-4-(3,4-methylenedioxybenzyl)amino-6,7,8-trimethoxyquinazoline] | 6.96 |
| COc1ccc(CNc2nc(N3CCOCC3)nc3ccc(C#N)cc23)cc1Cl [Example 183, 2-Morpholino-4-(3-chloro-4-methoxybenzyl)amino-6-cyanoquinazoline] | 9.40 |
| O=C(O)C1CCN(c2nc(NCc3ccc4c(c3)OCO4)c3cc(Cl)ccc3n2)CC1 [Example 222, 2-(4-Carboxypiperidino)-4-(3,4-methylenedioxybenzyl)amino-6-chloroquinazoline] | 8.19 |
| OCC(O)COc1nc(NCc2ccc3c(c2)OCO3)c2cc(Cl)ccc2n1 (stereo not drawn) [Example 178, 2-(2,3-Dihydroxypropyl)oxy-4-(3,4-methylenedioxybenzyl)amino-6-chloroquinazoline] | 7.96 |
| COc1cc2c(NCc3ccc4c(c3)OCO4)nc(C)nc2c(OC)c1OC [Example 81, 2-Methyl-4-(3,4-methylenedioxybenzyl)amino-6,7,8-trimethoxyquinazoline] | 6.36 |
| CCOC(=O)/C=C/c1nc(NCc2ccc3c(c2)OCO3)c2cc(Cl)ccc2n1 [Example 114, (E)-2-(2-Ethoxycarbonylvinyl)-4-(3,4-methylenedioxybenzyl)amino-6-chloroquinazoline] | 8.52 |
| COc1ccc2nc(C(C)C)nc(NCc3ccc4c(c3)OCO4)c2c1 [Example 82, 2-Isopropyl-4-(3,4-methylenedioxybenzyl)amino-6-methoxyquinazoline] | 6.26 |
| N#Cc1ccc2ncnc(NCc3ccc4nc[nH]c4c3)c2c1 [Example 67, 4-(Benzimidazol-5-yl)methylamino-6-cyanoquinazoline] | 6.85 |
| CCOC(=O)/C(C)=C/c1nc(NCc2ccc3c(c2)OCO3)c2cc(Cl)ccc2n1 [Example 112, (E)-2-(2-Ethoxycarbonyl-1-propenyl)-4-(3,4-methylenedioxybenzyl)amino-6-chloroquinazoline] | 8.70 |
| NC(=O)CNc1nc(NCc2ccc3c(c2)OCO3)c2cc(Cl)ccc2n1 [Example 197] | 7.18 |

Results, then the molecule that gave them:

| pIC50 | Structure (SMILES) |
| --- | --- |
| 7.96 | OCCOc1nc(NCc2ccc3c(c2)OCO3)c2cc(Cl)ccc2n1 [Example 168] |
| 7.44 | COc1ccc2nc(OCc3ccccc3)nc(NCc3ccc4c(c3)OCO4)c2c1 [Example 91, 2-Benzyloxy-4-(4-methylenedioxybenzyl)amino-6-methoxyquinazoline] |
| 7.00 | NC(=O)c1ccc2nc(N3CCC(C(=O)O)CC3)nc(NCc3ccc4c(c3)OCO4)c2c1 [Example 245, 2-(4-Carboxypiperidino)-4-(3,4-methylenedioxybenzyl)amino-6-carbamoylquinazoline] |
| 6.57 | COc1ccc(CNc2ncnc3ccc(Cl)cc23)cc1OC [Example 59, 4-(3,4-Dimethoxybenzyl)amino-6-chloroquinazoline] |
| 7.80 | CN(CCO)c1nc(NCc2ccc3c(c2)OCO3)c2cc(Cl)ccc2n1 [Example 189, 2-[N-(2-Hydroxyethyl)-N-methylamino]-4-(3,4-methylenedioxybenzyl)amino-6-chloroquinazoline] |
| 6.42 | CCOc1ccc2ncnc(NCc3ccc4c(c3)OCO4)c2c1 [Example 64, 4-(3,4-Methylenedioxybenzyl)amino-6-ethoxyquinazoline] |
| 8.10 | Clc1ccc2nc(N3CCOCC3)nc(NCc3ccc4c(c3)OCO4)c2c1 [Example 182, 2-Morpholino-4-(3,4-methylenedioxybenzyl)amino-6-chloroquinazoline] |
| 8.05 | CSc1nc(NCc2ccc3c(c2)OCO3)c2cc(Cl)ccc2n1 [Example 180, 2-Methylthio-4-(3,4-methylenedioxybenzyl)amino-6-chloroquinazoline] |
| 7.70 | Clc1ccc2nc(-n3ccnc3)nc(NCc3ccc4c(c3)OCO4)c2c1 [Example 192, 2-(1-Imidazolyl)-4-(3,4-methylenedioxybenzyl)amino-6-chloroquinazoline] |
| 7.09 | Nc1cc(CNc2ncnc3ccc(Cl)cc23)ccc1Cl [Example 151, 4-(3-Amino-4-chlorobenzyl)amino-6-chloroquinazoline] |
| 8.70 | CCOC(=O)/C=C/c1nc(NCc2ccc(OC)c(Cl)c2)c2cc(Cl)ccc2n1 [Example 115, (E)-2-(2-Ethoxycarbonylvinyl)-4-(3-chloro-4-methoxybenzyl)amino-6-chloroquinazoline] |
| 8.05 | CCOC(=O)CCCNc1nc(NCc2ccc3c(c2)OCO3)c2cc(Cl)ccc2n1 [Example 214, 2-(3-Ethoxycarbonylpropyl)amino-4-(3,4-methylenedioxybenzyl)amino-6-chloroquinazoline] |
| 8.22 | N#Cc1ccc2nc(N3CCC(O)CC3)nc(NCc3ccc4c(c3)OCO4)c2c1 [Example 184, 2-(4-Hydroxypiperidino)-4-(3,4-methylenedioxybenzyl)amino-6-cyanoquinazoline] |
| 8.00 | OC1CCN(c2nc(NCc3ccc4c(c3)OCO4)c3cc(Cl)ccc3n2)CC1 [Example 185, 2-(4-Hydroxypiperidino)-4-(3,4-methylenedioxybenzyl)amino-6-chloroquinazoline] |
| 9.62 | CCOC(=O)CCCN(C)c1nc(NCc2ccc(OC)c(Cl)c2)c2cc(C#N)ccc2n1 [Example 220] |
| 7.54 | COCCOc1nc(NCc2ccc3c(c2)OCO3)c2cc(OC)ccc2n1 [Example 170, 2-(2-Methoxyethoxy)-4-(3,4-methylenedioxybenzyl)amino-6-methoxyquinazoline] |
| 9.00 | COc1ccc(CNc2nc(/C=C(/C)C(=O)O)nc3ccc(Cl)cc23)cc1Cl [Example 126, (Z)-2-(2-Carboxy-1-propenyl)-4-(3-chloro-4-methoxybenzyl)amino-6-chloroquinazoline] |
| 6.25 | COc1nc(NCc2ccc3c(c2)OCO3)c2cc(OC)c(OC)c(OC)c2n1 [Example 167, 2,7,8-Tetramethoxy-4-(3,4-methylenedioxybenzyl)aminoquinazoline] |
| 6.09 | COc1cc(OC)c2ncnc(NCc3ccc4c(c3)OCO4)c2c1 [Example 71, 4-(3,4-Methylenedioxybenzyl)amino-6,8-dimethoxyquinazoline] |
| 7.89 | COc1ccc2nc(N3CCC(C(=O)O)CC3)nc(NCc3ccc4c(c3)OCO4)c2c1 [Example 233, 2-(4-Carboxypiperidino)-4-(3,4-methylenedioxybenzyl)amino-6-methoxyquinazoline] |
| 9.00 | C/C(=C\c1nc(NCc2ccc3c(c2)OCO3)c2cc(Cl)ccc2n1)C(=O)O [Example 120, (E)-2-(2-Carboxy-1-propenyl)-4-(3,4-methylenedioxybenzyl)amino-6-chloroquinazoline] |
| 7.49 | CSc1ccc2ncnc(NCc3ccc(Cl)c(Cl)c3)c2c1 [Example 50, 4-(3,4-Dichlorobenzyl)amino-6-methylthioquinazoline] |
| 8.10 | COCCOc1nc(NCc2ccc3c(c2)OCO3)c2cc(Cl)ccc2n1 [Example 164, 2-(2-Methoxyethoxy)-4-(3,4-methylenedioxybenzyl)amino-6-chloroquinazoline] |
| 7.72 | OCCN(CCO)c1nc(NCc2ccc3c(c2)OCO3)c2cc(Cl)ccc2n1 [Example 191, 2-Bis(2-hydroxyethyl)amino-4-(3,4-methylenedioxybenzyl)amino-6-chloroquinazoline] |
